US11708352B2, “Anti-cancer compounds” (THE REGENTS OF THE UNIVERSITY OF CALIFORNIA, priority 2015, dated 2023)

Tests used:
[1] = target: T1, PARP1 (Homo sapiens, UniProt P09874); test: PARP enzymatic activity inhibition (Trevigen HT Universal PARP Assay Kit); type: biochemical
T1 construct: purchased Trevigen 4677-096-K
Experimental: PARP Enzymatic Activity Inhibition: Determination of IC50 Values for Selected Compounds (Data in FIG. 1)
(§1) The half maximal inhibitory concentration (IC50) with respect to PARP inhibition was determined for each test compound by using Trevigen's HT Universal PARP Assay Kit, according to the manufacturer's protocol (Cat #4677-096-K, Gaithersburg, Md.). This assay measures the incorporation of biotinylated poly(ADP-ribose) onto histone proteins in a 96-well strip well format. This assay is ideal for the determination of IC50 values of known or suspected PARP inhibitors. Briefly, stock solutions of each test compound were prepared in DMSO. Histone strip wells were incubated for 30 minutes at room temperature with 50 μl/well of 1×PARP Buffer to rehydrate the histones. Serial dilutions of either test compound were added to appropriate wells. Diluted PARP enzyme (0.5 Unit/well) was then added to the wells containing compounds, and incubated for 10 minutes at room temperature. Subsequently, 25 μl of 1×PARP Cocktail, containing activated DNA, was distributed into each well. Three types of control wells were also analyzed; i. A negative control without PARP was prepared to determine background absorbance. ii. An activity control for PARP Inhibitor Study: 0.5 Unit/well PARP-HSA without inhibitors. These wells provided the 100% activity reference point. iii. And a PARP Standard Curve: Serial dilution of the PARP-HAS standard were prepared in cold microtubes with 1×PARP Buffer such that the total activity is 1 Unit/25 μl, 0.5 Units/25 μl, 0.25 Units/25 μl, 0.1 Units/25 μl, 0.05 Units/25 μl, 0.025 Units/25 and 0.01 Units/25 μl. 25 μl of each standard was added to triplicate wells. Following a 60 minutes incubation at room temperature, the strip wells were washed twice with 1×PBS+0.1% Triton X-100, and twice with 1×PBS. For activity detection, 50 μl per well of diluted Strep-HRP was added, and then incubated at room temperature for 60 minutes. Subsequently, 50 μl per well of pre-warmed TACS-Sapphire™ colorimetric substrate was added followed by a 15 minutes incubation, in the dark, at room temperature. The reactions were then stopped by adding 50 μl per well of 0.2M HCl or 5% Phosphoric Acid and read the absorbance at 450 nm.
The IC50 values were determined by performing non-linear regression analysis fitting velocities and the logarithm of inhibitor concentrations to a sigmoidal dose response with a variable slope model using the GraphPad Prism 6.0 software.

[2] = target: PARP2 (Homo sapiens, UniProt Q9UGN5); test: PARP enzymatic activity inhibition, PARP2 column; type: biochemical
PARP2, sequence (Q9UGN5 whole entry, species assumed): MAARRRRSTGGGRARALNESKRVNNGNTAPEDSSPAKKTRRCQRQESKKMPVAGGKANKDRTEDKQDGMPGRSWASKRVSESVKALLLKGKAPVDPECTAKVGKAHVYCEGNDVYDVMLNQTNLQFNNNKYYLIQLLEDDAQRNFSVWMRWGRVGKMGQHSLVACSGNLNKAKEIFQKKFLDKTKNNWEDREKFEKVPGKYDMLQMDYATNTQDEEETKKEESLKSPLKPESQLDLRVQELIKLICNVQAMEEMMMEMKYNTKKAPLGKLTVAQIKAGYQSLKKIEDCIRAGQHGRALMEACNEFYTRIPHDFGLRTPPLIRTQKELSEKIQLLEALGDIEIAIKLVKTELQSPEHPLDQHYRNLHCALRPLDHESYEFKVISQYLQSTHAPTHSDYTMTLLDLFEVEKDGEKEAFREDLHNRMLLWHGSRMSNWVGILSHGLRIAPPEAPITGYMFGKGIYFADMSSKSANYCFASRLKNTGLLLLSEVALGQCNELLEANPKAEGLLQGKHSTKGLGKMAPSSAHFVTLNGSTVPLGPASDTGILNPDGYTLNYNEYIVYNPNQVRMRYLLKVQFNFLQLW
Experimental: as §1, with “And a PARP Standard Curve: Serial dilution of the PARP-HAS standard were prepared in cold microtubes with 1×PARP Buffer such that the total activity is 1 Unit/25 μl, 0.5 Units/25 μl, 0.25 Units/25 μl, 0.1 Units/25 μl, 0.05 Units/25 μl, 0.025 Units/25 and 0.01 Units/25 μl. 25 μl of each standard was added to triplicate wells. Following a 60 minutes incubation at room temperature, the strip wells were washed twice with 1×PBS+0.1% Triton X-100, and twice with 1×PBS. For activity detection, 50 μl per well of diluted Strep-HRP was added, and then incubated at room temperature for 60 minutes. Subsequently, 50 μl per well of pre-warmed TACS-Sapphire™ colorimetric substrate was added followed by a 15 minutes incubation, in the dark, at room temperature.” left out

[3] = target: ABL1 (Homo sapiens, UniProt P00519); test: ABL kinase assay (Z'-LYTE biochemical kinase profiling); settings: ATP 10 μM final
ABL1, sequence (P00519 whole entry): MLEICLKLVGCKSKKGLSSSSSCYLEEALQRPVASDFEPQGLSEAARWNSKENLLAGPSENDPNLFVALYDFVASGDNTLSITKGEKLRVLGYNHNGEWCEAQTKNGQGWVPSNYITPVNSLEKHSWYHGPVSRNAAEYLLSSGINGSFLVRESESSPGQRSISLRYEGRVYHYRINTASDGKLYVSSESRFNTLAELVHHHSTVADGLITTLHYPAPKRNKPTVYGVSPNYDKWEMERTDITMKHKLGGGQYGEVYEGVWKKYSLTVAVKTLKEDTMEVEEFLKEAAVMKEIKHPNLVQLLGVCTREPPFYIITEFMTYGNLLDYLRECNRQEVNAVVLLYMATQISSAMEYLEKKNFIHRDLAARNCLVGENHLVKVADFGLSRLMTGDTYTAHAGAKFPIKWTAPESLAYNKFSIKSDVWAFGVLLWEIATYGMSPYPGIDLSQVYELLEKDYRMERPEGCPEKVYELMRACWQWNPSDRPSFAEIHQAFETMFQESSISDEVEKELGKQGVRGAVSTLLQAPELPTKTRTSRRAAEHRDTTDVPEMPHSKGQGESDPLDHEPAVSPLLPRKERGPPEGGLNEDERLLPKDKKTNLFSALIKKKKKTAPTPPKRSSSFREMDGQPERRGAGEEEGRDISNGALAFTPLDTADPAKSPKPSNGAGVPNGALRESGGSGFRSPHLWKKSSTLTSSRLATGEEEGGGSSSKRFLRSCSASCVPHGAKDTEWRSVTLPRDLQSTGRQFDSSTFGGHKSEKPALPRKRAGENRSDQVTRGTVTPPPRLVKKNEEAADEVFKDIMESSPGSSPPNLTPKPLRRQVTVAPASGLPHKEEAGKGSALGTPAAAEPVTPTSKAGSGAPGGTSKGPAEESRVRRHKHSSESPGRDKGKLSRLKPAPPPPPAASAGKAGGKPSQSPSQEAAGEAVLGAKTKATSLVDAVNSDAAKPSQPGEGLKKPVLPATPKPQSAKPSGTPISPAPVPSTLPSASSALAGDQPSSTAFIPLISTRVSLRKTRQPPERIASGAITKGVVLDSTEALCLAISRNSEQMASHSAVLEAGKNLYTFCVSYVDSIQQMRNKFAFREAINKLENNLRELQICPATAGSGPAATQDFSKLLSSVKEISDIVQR
Experimental: ABL Kinase Assays (Data in FIG. 1)
The direct inhibitory effect of the test compounds on the ABL kinases activity was assessed using the Z′-LYTE biochemical kinase profiling assays (SelectScreen Kinase Profiling assays, Life Technologies). The Z′-LYTE biochemical assay employs a fluorescence-based, coupled-enzyme format and is based on the differential sensitivity of phosphorylated and non-phosphorylated peptides to proteolytic cleavage. The peptide substrate is labeled with two fluorophores (one at each end) that make up a FRET pair. In the primary reaction, the kinase transfers the gamma-phosphate of ATP to a single tyrosine, serine or threonine residue in a synthetic FRET-peptide. In the secondary reaction, a site-specific protease recognizes and cleaves non-phosphorylated FRET-peptides. Phosphorylation of FRET-peptides suppresses cleavage by the Development Reagent. Cleavage disrupts FRET between the donor and acceptor fluorophores on the FRET-peptide, whereas uncleaved, phosphorylated FRET-peptides maintain FRET. The extent of phosphorylation of the FRET-peptide can be calculated from the Emission Ratio between cleaved and uncleaved FRET-peptides. The Emission Ratio will remain low if the FRET-peptide is phosphorylated (i.e., no kinase inhibition) and will be high if the FRET-peptide is non-phosphorylated (i.e., kinase inhibition).
Using the above described assay, The Test Compounds were screened in 1% DMSO (final) in the well. 10 point titrations, 3-fold serial dilutions were conducted. Briefly, in a black 384-well plate serial dilutions of test compound or 100 nL 100× were mixed with kinase buffer peptide/Kinase Mixture and ATP Solution (10 μM final). After one hour Kinase Reaction incubation at room temperature, the development Reagent Solution was added. Subsequently, the fluorescence signals were measured using a fluorescence plate reader. Data were analyzed and the IC50 were calculated with XLfit graphing software using the sigmoidal dose-response model.

[4] = tested on: bovine brain tubulin; test: Tubulin polymerization assay (Cytoskeleton kit BK011P); type: biochemical; settings: % Inhibition versus control; compound concentration of 4 μM
From the text: Tubulin Polymerization Assay (Data in FIG. 1)
The high-throughput screening-tubulin polymerization assay kit (Cytoskeleton, Cat. #BK011P) is an economical one step procedure for determining the effects of drugs or proteins on tubulin polymerization. Polymerization is followed by fluorescence enhancement due to the incorporation of a fluorescent reporter into microtubules as polymerization occurs. The standard assay tubulin generates a polymerization curve representing the three phases of microtubule formation, namely nucleation, growth, and steady state equilibrium. Compounds that interact with tubulin will often alter one or more of the characteristic phases of polymerization. For example, the anti-mitotic drug paclitaxel eliminates the nucleation phase and enhances the Vmax of the growth phase. Similarly, the microtubule destabilizing drug, vinblastine (also antimitotic) causes a decrease in Vmax and a reduction in final polymer mass. Thus, one application of this assay is the identification of novel anti-mitotics.
The direct effects of the test compounds on tubulin polymerization were investigated using the abovementioned Tubulin polymerization assay kit (Cytoskeleton, Cat. #BK011P), as indicated by the manufacturer protocol. Briefly, bovine brain tubulin (400 μg/sample) in the presence of either 0.5% DMSO treated (control), 4 μM test compounds, 3 μM paclitaxel (Cytoskeleton), or 3 μM vinblastine (Cytoskeleton) was incubated in PEM buffer [80 mm PIPES, 1 mm EGTA, 1 mm MgCl2 (pH 6.8)] containing 1.0 mm GTP (G-PEM) and 15% glycerol, at 37 C. All samples (wells) contained 15% glycerol. The degree of polymerization over time was measured in a spectrophotometer (Biotek synergy HT plate reader) at 350 nm. All time points were plotted and analyzed using GraphPad Prism 6.0 software.
DMSO control was set as 0% inhibition. Positive values depict the percentage of decrease in Vmax and final polymer mass, as compared to control. Negative values are inversely correlated to degree of nucleation phase elimination and the percentage of increase of the Vmax, as compared to control.

[5] = tested on: A549; test: Cell viability assay in solid tumor cell lines (Cell-Titer Glo), A549; type: cell-based; settings: Homo sapiens, 72 hours
Experimental: (§2) Cell Viability Assay in Solid Tumors Cell Lines (Data in FIG. 2)
(§3) Human cancer cell lines (lung, ovarian, breast pancreatic and mesothelioma) were purchased from the ATCC. The cell lines were cultured in RPMI 1640 (Life Technologies, Carlsbad, Calif.) supplemented with 10% fetal bovine serum (FBS) and antibiotics. […] At the end of treatment, cell proliferation was determined by an intracellular adenosine triphosphate monitoring system (Cell-Titer Glo-Promega).
(§4) Inhibitory activity was evaluated comparing treated versus control data using the GraphPad Prism 6.0 software.

[6] = tested on: OVCAR8; test: Cell viability assay in solid tumor cell lines (Cell-Titer Glo), OVCAR8; type: cell-based; settings: Homo sapiens, OVCAR-8, 72 hours
Experimental: as §2, §3, §4

T1 sequence (P09874 whole entry): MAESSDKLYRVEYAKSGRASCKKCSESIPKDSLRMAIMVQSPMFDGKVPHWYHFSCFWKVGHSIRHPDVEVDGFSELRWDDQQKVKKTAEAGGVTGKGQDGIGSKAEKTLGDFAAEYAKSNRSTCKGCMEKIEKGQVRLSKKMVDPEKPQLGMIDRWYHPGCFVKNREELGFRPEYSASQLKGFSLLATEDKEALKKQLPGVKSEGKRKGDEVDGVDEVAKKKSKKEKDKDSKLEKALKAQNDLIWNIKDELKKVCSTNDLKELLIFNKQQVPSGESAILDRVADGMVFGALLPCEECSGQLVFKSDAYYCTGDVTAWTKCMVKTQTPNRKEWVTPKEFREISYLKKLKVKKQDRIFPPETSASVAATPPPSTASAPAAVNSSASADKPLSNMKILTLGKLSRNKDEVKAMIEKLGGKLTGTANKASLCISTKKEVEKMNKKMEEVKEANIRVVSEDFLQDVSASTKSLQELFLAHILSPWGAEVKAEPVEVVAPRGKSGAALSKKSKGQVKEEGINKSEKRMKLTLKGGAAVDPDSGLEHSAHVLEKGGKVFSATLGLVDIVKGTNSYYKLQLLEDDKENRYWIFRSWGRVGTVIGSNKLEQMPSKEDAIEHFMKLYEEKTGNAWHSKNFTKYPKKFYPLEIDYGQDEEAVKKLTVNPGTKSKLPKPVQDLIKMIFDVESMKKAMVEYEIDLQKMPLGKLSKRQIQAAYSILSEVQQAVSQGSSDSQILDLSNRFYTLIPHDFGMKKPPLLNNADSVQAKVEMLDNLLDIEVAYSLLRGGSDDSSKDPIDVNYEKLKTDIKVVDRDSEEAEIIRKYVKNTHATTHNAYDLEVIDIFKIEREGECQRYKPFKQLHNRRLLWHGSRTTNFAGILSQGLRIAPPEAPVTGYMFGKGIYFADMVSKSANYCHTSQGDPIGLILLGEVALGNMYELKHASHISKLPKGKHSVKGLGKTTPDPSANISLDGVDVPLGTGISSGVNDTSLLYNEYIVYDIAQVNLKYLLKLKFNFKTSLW

Row | Compound | IC50 [1] | IC50 [2] | IC50 [3] | IC50 [5] | IC50 [6] | Tubulin Polymerization Inhibition [4]
1 | COC(=O)Nc1nc2cc(-c3n[nH]c(=O)c4ccccc34)ccc2[nH]1 [Compound No. 2, Methyl (5-(4-oxo-3,4-dihydrophthalazin-1-yl)-1H-benzimidazol-2-yl)carbamate] | > 10000 nM |  | 500 to 1000 nM | 1000 to 5000 nM | 1000 to 5000 nM | X (X = (% Inhibition versus control) <20%. Results with a compound concentration of 4 μM)
2 | COCCOC(=O)Nc1nc2cc(-c3n[nH]c(=O)c4ccccc34)ccc2[nH]1 [Compound No. 3, 2-Methoxyethyl (5-(4-oxo-3,4-dihydrophthalazin-1-yl)-1H-benzimidazol-2-yl)carbamate] | 5000 to 10000 nM |  | 500 to 1000 nM | 1000 to 5000 nM | 1000 to 5000 nM | Y (Y = (% Inhibition versus control) ≤20%. Results with a compound concentration of 4 μM)
3 | CCOC(=O)Nc1nc2cc(-c3n[nH]c(=O)c4cccc(Cl)c34)ccc2[nH]1 [Compound No. 20, Ethyl (5-(8-chloro-4-oxo-3,4-dihydrophthalazin-1-yl)-1H-benzimidazol-2-yl)carbamate] | > 10000 nM |  | 500 to 1000 nM | 1000 to 5000 nM | 500 to 1000 nM | 
4 | CCCC(=O)Nc1nc2cc(-c3n[nH]c(=O)c4ccccc34)cc(Cl)c2[nH]1 [Compound No. 139, N-(7-chloro-5-(4-oxo-3,4-dihydrophthalazin-1-yl)-1H-benzimidazol-2-yl)butyramide] |  |  | < 500 nM | < 500 nM | < 500 nM | 
5 | CCOC(=O)Nc1nc2cc(-c3n[nH]c(=O)c4ccccc34)cc(Br)c2[nH]1 [Compound No. 140, Ethyl (7-bromo-5-(4-oxo-3,4-dihydrophthalazin-1-yl)-1H-benzimidazol-2-yl)carbamate] | 5000 to 10000 nM |  | < 500 nM | < 500 nM | < 500 nM | 
6 | CCOC(=O)Nc1nc2cc(-c3n[nH]c(=O)c4ccccc34)cc(C)c2[nH]1 [Compound No. 145, Ethyl (7-methyl-5-(4-oxo-3,4-dihydrophthalazin-1-yl)-1H-benzimidazol-2-yl)carbamate] | > 10000 nM |  | 5000 to 10000 nM | < 500 nM | < 500 nM | 

The next lines start with results.

Row | IC50 [1] | IC50 [2] | IC50 [3] | IC50 [5] | IC50 [6] | Compound | Tubulin Polymerization Inhibition [4]
7 | 5000 to 10000 nM | < 500 nM | < 500 nM | < 500 nM | < 500 nM | CCOC(=O)Nc1nc2cc(-c3n[nH]c(=O)c4ccccc34)ccc2[nH]1 [Compound No. 1, Ethyl (5-(4-oxo-3,4-dihydrophthalazin-1-yl)-1H-benzimidazol-2-yl)carbamate] | Y (Y = (% Inhibition versus control) ≤20%. Results with a compound concentration of 4 μM)
8 | > 10000 nM |  | < 500 nM | < 500 nM | < 500 nM | CCOC(=O)Nc1nc2cc(-c3n[nH]c(=O)c4ccc(F)cc34)ccc2[nH]1 [Compound No. 9, Ethyl (5-(7-fluoro-4-oxo-3,4-dihydrophthalazin-1-yl)-1H-benzimidazol-2-yl)carbamate] | 
9 | > 10000 nM |  | < 500 nM | < 500 nM | < 500 nM | CCOC(=O)Nc1nc2cc(-c3n[nH]c(=O)c4cc(F)c(F)cc34)ccc2[nH]1 [Compound No. 11, Ethyl (5-(6,7-difluoro-4-oxo-3,4-dihydrophthalazin-1-yl)-1H-benzimidazol-2-yl)carbamate] | 
10 | > 10000 nM |  | < 500 nM | 500 to 1000 nM | 500 to 1000 nM | CCOC(=O)Nc1nc2cc(-c3n[nH]c(=O)c4ccc(Cl)cc34)ccc2[nH]1 [Compound No. 21, Ethyl (5-(7-chloro-4-oxo-3,4-dihydrophthalazin-1-yl)-1H-benzimidazol-2-yl)carbamate] | 
11 | 1000 to 5000 nM |  | < 500 nM | 500 to 1000 nM | < 500 nM | CCOC(=O)Nc1nc2cc(-c3n[nH]c(=O)c4cc(Cl)c(Cl)cc34)ccc2[nH]1 [Compound No. 23, Ethyl (5-(6,7-dichloro-4-oxo-3,4-dihydrophthalazin-1-yl)-1H-benzimidazol-2-yl)carbamate] | 
12 | > 10000 nM |  | < 500 nM | 1000 to 5000 nM | 1000 to 5000 nM | CCNC(=O)Nc1nc2cc(-c3n[nH]c(=O)c4ccccc34)ccc2[nH]1 [Compound No. 80, 1-Ethyl-3-(5-(4-oxo-3,4-dihydrophthalazin-1-yl)-1H-benzimidazol-2-yl)urea] | 
13 | 5000 to 10000 nM |  | < 500 nM | < 500 nM | < 500 nM | CCCC(=O)Nc1nc2cc(-c3n[nH]c(=O)c4ccccc34)ccc2[nH]1 [Compound No. 86, N-(5-(4-oxo-3,4-dihydrophthalazin-1-yl)-1H-benzimidazol-2-yl)butyramide] | 
14 | 1000 to 5000 nM |  | < 500 nM | < 500 nM | < 500 nM | CCOC(=O)Nc1nc2cc(-c3n[nH]c(=O)c4ccccc34)cc(Cl)c2[nH]1 [Compound No. 135, Ethyl (7-chloro-5-(4-oxo-3,4-dihydrophthalazin-1-yl)-1H-benzimidazol-2-yl)carbamate] | 
